In ChEMBL document CHEMBL4020814, “Synthesis, Binding Mode, and Antihyperglycemic Activity of Potent and Selective (5-Imidazol-2-yl-4-phenylpyrimidin-2-yl)[2-(2-pyridylamino)ethyl]amine Inhibitors of Glycogen Synthase Kinase 3” (J Med Chem, 2017) one finds IC50 and EC50 data, which are given here for 51 molecules.

A short description of experiment [1]: Inhibition of human GSK3 using biotin-CREB peptide substrate after 1 hr by scintillation counting method.
Experiment [2] can be described thus: Inhibition of GSK3 expressed in CHO-IR cells expressing human insulin receptor assessed as glycogen synthase activation after 30 mins by filter paper assay. The format is cell-based, Cavia porcellus.

By IC50 is commonly meant the midpoint of a concentration-inhibition curve. High values mean weaker potency, low ones greater potency. Broadly, the EC50 is the concentration giving half of the maximal effect. In experiment [1], `Cn1ccnc1-c1cnc(NCCNc2ccc([N+](=O)[O-])c(N)n2)nc1-c1ccc(Cl)cc1Cl` registered an IC50 of 1 nM. The EC50 in experiment [2] came to 250 nM.

As for `N#Cc1ccc(-c2nc(NCCNc3ccc([N+](=O)[O-])cn3)ncc2C(=O)NCCN)cc1`, the IC50 in experiment [1] was 153 nM.

In experiment [1], `CS(=O)(=O)Nc1cnc(NCCNc2ccc([N+](=O)[O-])c(N)n2)nc1-c1ccc(Cl)cc1Cl` registered an IC50 of 9 nM. Also, the EC50 in experiment [2] was 390 nM.

In experiment [1], `N#Cc1cnc(NCCNc2ncc(-n3ccnc3)c(-c3ccc(Cl)cc3Cl)n2)nc1N` showed an IC50 of 236 nM. The EC50 in experiment [2] worked out at 9440 nM.

Take `Nc1nc(NCCNc2ncc(N3CCNCC3)c(-c3ccc(Cl)cc3Cl)n2)ccc1[N+](=O)[O-]`: the IC50 in experiment [1] worked out at 18 nM. Besides, in experiment [2], the EC50 amounted to 510 nM.

For the molecule `O=[N+]([O-])c1ccc(NCCNc2ncc(-n3ccnc3)c(-c3ccccc3)n2)nc1`, in experiment [1], 197 nM corresponded to half-maximal inhibition (IC50). In experiment [2], the half-maximal effective concentration (EC50) stood at 23900 nM.

Consider `COc1ccc(-c2nc(NCCNc3ccc([N+](=O)[O-])cn3)ncc2-n2ccnc2)c(OC)c1`, for which the IC50 in experiment [1] turned out to be 27 nM. For the same molecule, the EC50 in experiment [2] is 1500 nM.

Turning to `N#Cc1ccc(-c2nc(NCCNc3ccc([N+](=O)[O-])cn3)ncc2C(=O)OCc2ccccc2)cc1`, in experiment [1], the IC50 was found to be 190 nM.

In turn, `O=[N+]([O-])c1ccc(OCCNc2ncc(-n3ccnc3)c(-c3ccc(Cl)cc3Cl)n2)nc1` returned an IC50 in experiment [1] of 2830 nM.

For the molecule `CC(=O)c1ccc(NCCNc2ncc(-n3ccnc3)c(-c3ccc(Cl)cc3Cl)n2)nc1`, the IC50 in experiment [1] was 5950 nM.

`CN(C)CC(=O)Nc1cnc(NCCNc2ccc([N+](=O)[O-])c(N)n2)nc1-c1ccc(Cl)cc1Cl` registered an IC50 in experiment [1] of 25 nM. The EC50 in experiment [2] worked out at 670 nM.

Consider `O=[N+]([O-])c1ccc(NCCNc2ncc(-n3ccnc3)c(-c3ccc(N4CCNCC4)cc3)n2)nc1`, for which the midpoint of inhibition in experiment [1], the IC50, lay at 166 nM.

In experiment [1], `CCOC(=O)C1=C(c2ccc([N+](=O)[O-])cc2)N=C(NCCNc2ccc([N+](=O)[O-])cn2)NC1c1ccc(C(N)=O)cc1` (configuration not stated) yielded an IC50 of 2000 nM.

In turn, `CCc1ccc(-c2nc(NCCNc3ccc([N+](=O)[O-])cn3)ncc2-n2ccnc2)cc1` returned an IC50 in experiment [1] of 9 nM. Moreover, the EC50 in experiment [2] is 100 nM.

`Nc1nc(NCCNc2ncc(-c3nc(-c4ccccc4)c[nH]3)c(-c3ccc(Cl)cc3Cl)n2)ccc1[N+](=O)[O-]` gave an IC50 in experiment [1] of 1 nM. The EC50 in experiment [2] was found to be 130 nM.

For `CC(C)(C)c1c[nH]c(-c2cnc(NCCNc3ccc([N+](=O)[O-])c(N)n3)nc2-c2ccc(Cl)cc2Cl)n1`, half-maximal inhibition in experiment [1] (IC50) was put at 27 nM. Moreover, the EC50 in experiment [2] stood at 1070 nM.

For the molecule `O=[N+]([O-])c1ccc(NCCNc2ncc(-n3ccnc3)c(-c3ccc(F)cc3)n2)nc1`, the IC50 in experiment [1] came to 200 nM.

The molecule `N#Cc1ccc(-c2nc(NCCNc3ccc([N+](=O)[O-])cn3)ncc2C(=O)NCc2ccccc2)cc1` returned an IC50 in experiment [1] of 75 nM.

`Nc1nc(NCCNc2ncc(CN3CCOCC3)c(-c3ccc(Cl)cc3Cl)n2)ccc1[N+](=O)[O-]` registered a 50% inhibitory concentration (IC50) in experiment [1] of 17 nM. Moreover, in experiment [2], the EC50 is 840 nM.

In experiment [1], `CC(C)(C)NC(=O)c1cnc(NCCNc2ccc([N+](=O)[O-])cn2)nc1-c1ccc(C#N)cc1` returned an IC50 of 110 nM. In addition, the EC50 in experiment [2] is > 10000 nM.

As for `COc1ccc(-c2nc(NCCNc3ccc([N+](=O)[O-])cn3)ncc2-n2ccnc2)cc1`, the IC50 in experiment [1] stood at 68 nM. In addition, in experiment [2], the EC50 was 2100 nM.

On to `Clc1ccc(-c2nc(NCCNc3nc4ccc(Cl)cc4s3)ncc2-n2ccnc2)c(Cl)c1`, for which the midpoint of inhibition in experiment [1], the IC50, lay at 527 nM. In experiment [2], the EC50 was 12700 nM.

`O=[N+]([O-])c1ccc(NCCN(CCN2CCOCC2)c2ncc(-n3ccnc3)c(-c3ccc(Cl)cc3Cl)n2)nc1` showed an IC50 in experiment [1] of 15 nM. For the same molecule, in experiment [2], the EC50 is 280 nM.

`O=[N+]([O-])c1ccc(NCCNc2ncc(-n3ccnc3)c(-c3ccc(Cl)c(Cl)c3)n2)nc1` showed an IC50 in experiment [1] of 646 nM.

Consider `O=[N+]([O-])c1ccc(NCCNc2ncc(-n3ccnc3)c(-c3ccc(Cl)cc3Cl)n2)nc1O`, for which half-maximal inhibition in experiment [1] (IC50) required 1000 nM.

As for `COc1ccccc1-c1nc(NCCNc2ccc([N+](=O)[O-])cn2)ncc1-n1ccnc1`, 884 nM corresponded to half-maximal inhibition in experiment [1] (IC50).

The molecule `N#Cc1ccc(-c2nc(NCCNc3ccc([N+](=O)[O-])cn3)ncc2C(=O)O)cc1` gave an IC50 in experiment [1] of 35 nM. In addition, the EC50 in experiment [2] is > 10000 nM.

`CC(C)(C)OC(=O)c1cnc(NCCNc2ccc([N+](=O)[O-])cn2)nc1-c1ccc(C#N)cc1` displayed an IC50 in experiment [1] of 25 nM.

`N#Cc1ccc(-c2nc(NCCNc3ccc([N+](=O)[O-])cn3)ncc2C(=O)NCc2ccncc2)cc1` yielded an IC50 in experiment [1] of 47 nM.

For the molecule `O=[N+]([O-])c1ccc(NCCNc2ncc(-n3ccnc3)c(-c3ccc(N4CCCCC4)cc3)n2)nc1`, the IC50 in experiment [1] was determined as 777 nM.

In experiment [1], `CC(C)(C)OC(=O)N1CCN(c2ccc(-c3nc(NCCNc4ccc([N+](=O)[O-])cn4)ncc3-n3ccnc3)cc2)CC1` gave an IC50 of 1930 nM. Against the preceding molecule, the IC50 is about 2.5-fold higher.

Consider `O=[N+]([O-])c1ccc(NCCNc2ncc(-n3ccnc3)c(-c3ccc(-n4ccnc4)cc3)n2)nc1`, for which, in experiment [1], the IC50 was found to be 124 nM.

In turn, `CCOC(=O)c1c(-c2ccncc2)nc(NCCNc2ccc([N+](=O)[O-])cn2)nc1-c1ccc(C(N)=O)cc1` displayed an IC50 in experiment [1] of 140 nM.

Molecule `O=[N+]([O-])c1ccc(NCCN(CCc2ccccn2)c2ncc(-n3ccnc3)c(-c3ccc(Cl)cc3Cl)n2)nc1` showed an IC50 in experiment [1] of 113 nM.

`CN1CCN(c2ccc(-c3nc(NCCNc4ccc([N+](=O)[O-])cn4)ncc3-n3ccnc3)cc2)CC1`: the IC50 in experiment [1] was 1120 nM.

In experiment [1], `N#Cc1ccc(-c2nc(NCCNc3ccc([N+](=O)[O-])cn3)ncc2C(=O)N2CCOCC2)cc1` yielded an IC50 of 161 nM.

On to `Cc1cc(NCCNc2ncc(-n3ccnc3)c(-c3ccc(Cl)cc3Cl)n2)nc(N)n1`, for which, in experiment [1], the IC50 is > 10000 nM.

Molecule `COc1nc(NCCNc2ncc(-n3ccnc3)c(-c3ccc(Cl)cc3Cl)n2)ccc1[N+](=O)[O-]` displayed an IC50 in experiment [1] of 81 nM.

Take `N#Cc1ccnc(NCCNc2ncc(-n3ccnc3)c(-c3ccc(Cl)cc3Cl)n2)c1`: 200 nM corresponded to half-maximal inhibition in experiment [1] (IC50).

The molecule `CN(C)c1nc(NCCNc2ncc(-n3ccnc3)c(-c3ccc(Cl)cc3Cl)n2)ccc1[N+](=O)[O-]` had an IC50 in experiment [1] of 1000 nM.

`COc1cccc(-c2nc(NCCNc3ccc([N+](=O)[O-])cn3)ncc2-n2ccnc2)c1`: it took 347 nM to reach half-maximal inhibition in experiment [1] (IC50).

As to `FC(F)(F)c1ccnc(NCCNc2ncc(-n3ccnc3)c(-c3ccc(Cl)cc3Cl)n2)n1`, in experiment [1], the IC50 was determined as 381 nM.

For the molecule `Cc1cc([N+](=O)[O-])cnc1NCCNc1ncc(-n2ccnc2)c(-c2ccc(Cl)cc2Cl)n1`, in experiment [1], the IC50 worked out at 3370 nM.

`CNc1nc(NCCNc2ncc(-n3ccnc3)c(-c3ccc(Cl)cc3Cl)n2)ccc1[N+](=O)[O-]` came in with an IC50 in experiment [1] of 576 nM. This IC50 is about 5.9-fold lower than that of the molecule before.

Regarding `COc1ccc(OC)c(-c2nc(NCCNc3ccc([N+](=O)[O-])cn3)ncc2-n2ccnc2)c1`, the IC50 in experiment [1] worked out at 4870 nM.

Turning to `COCCN(CCNc1ccc([N+](=O)[O-])cn1)c1ncc(-n2ccnc2)c(-c2ccc(Cl)cc2Cl)n1`, inhibition in experiment [1] was half-maximal at 175 nM (IC50). This IC50 lies about 28-fold lower than the previous one.

Molecule `CCOC(=O)C1=C(c2ccncc2)N=C(NCCNc2ccc([N+](=O)[O-])cn2)NC1c1ccc(C(N)=O)cc1` (configuration not stated) came in with an IC50 in experiment [1] of 3700 nM. This IC50 lies about 21-fold higher than the previous one.

Molecule `CCOC(=O)c1ccc(NCCNc2ncc(-n3ccnc3)c(-c3ccc(Cl)cc3Cl)n2)nc1` returned an IC50 in experiment [1] of 3650 nM.

Take `CN1CCN(C)C(CN(CCNc2ccc([N+](=O)[O-])cn2)c2ncc(-n3ccnc3)c(-c3ccc(Cl)cc3Cl)n2)C1` (configuration not stated): the IC50 in experiment [1] came out at 121 nM.

On to `CCOC(=O)C1=C(CC)N=C(NCCNc2ccc([N+](=O)[O-])cn2)NC1c1ccc(C(N)=O)cc1` (configuration not stated), for which, in experiment [1], it took 3400 nM to reach half-maximal inhibition (IC50). Compared with the last molecule, the IC50 is about 28-fold higher.

Take `Clc1ccc(-c2nc(NCCNc3ncccn3)ncc2-n2ccnc2)c(Cl)c1`: the IC50 in experiment [1] was > 10000 nM.
